In patent publication US9854800B2, “Herbicidal compositions comprising 4-amino-3-chloro-6-(4-chloro-2-fluoro-3-methoxyphenyl)-5-fluoropyridine-2-carboxylic acid or a derivative thereof and chlormequat chloride” (priority 2015, dated 2018):

Tests used:
Format in all cases: in vivo
Settings in all cases: 21 DAA
[1] = test system: BRSNW = Brassica napus napus (winter) (winter rape); assay: Post-emergent foliar herbicidal activity, greenhouse: BRSNW
Protocol: (§1) Seeds of the desired test plant species were planted in Sun Gro MetroMix® 306 planting mixture, which typically has a pH of 6.0 to 6.8 and an organic matter content of about 30 percent, in plastic pots with a surface area of 103.2 square centimeters (cm^2). When required to ensure good germination and healthy plants, a fungicide treatment and/or other chemical or physical treatment was applied. The plants were grown for 7-36 days in a greenhouse with an approximate 14 hour (h) photoperiod which was maintained at about 18° C. during the day and 17° C. during the night. Nutrients and water were added on a regular basis and supplemental lighting was provided with overhead metal halide 1000-Watt lamps as necessary. The plants were employed for testing when they reached the second or third true leaf stage.
(§2) Treatments consisted of the compound of formula (I) and a second herbicide alone (chlormequat). Weighed amounts of the compound of formula (I) were placed in 25 milliliter (mL) glass vials and dissolved in 4 mL of a 97:3 v/v mixture of acetone and DMSO to obtain concentrated stock solutions. Compound requirements are based upon a 12 mL application volume at a rate of 187 liters per hectare (L/ha). Spray solutions of the second herbicide and compound of formula (I) mixtures were prepared by adding the stock solutions to the appropriate amount of dilution solution to form 12 mL spray solution with active ingredients in two-way combinations. Formulated compounds were applied to the plant material with an overhead Mandel track sprayer equipped with 8002E nozzles calibrated to deliver 187 L/ha over an application area of 0.503 square meters (m^2) at a spray height of […] above average plant canopy. Control plants were sprayed in the same manner with the solvent blank.
(§3) The treated plants and control plants were placed in a greenhouse as described above and watered by sub-irrigation to prevent wash-off of the test compounds. After 20-22 days, the condition of the test plants as compared with that of the control plants was determined visually and scored on a scale of 0 to 100 percent where 0 corresponds to no injury and 100 corresponds to complete kill.
(§4) Colby's equation was used to determine the herbicidal effects expected from the mixtures (Colby, S. R. 1967. Calculation of the synergistic and antagonistic response of herbicide combinations. Weeds 15:20-22.) .
(§5) The following equation was used to calculate the expected activity of mixtures containing two active ingredients, A and B: Expected=A+B−(A×B/100)
(§6) A=observed efficacy of active ingredient A at the same concentration as used in the mixture.
(§7) B=observed efficacy of active ingredient B at the same concentration as used in the mixture.

[2] = test system: CIRAR = Cirsium arvense (L.) Scop. (Canada thistle); assay: Post-emergent foliar herbicidal activity, greenhouse: CIRAR
Protocol: as §1, §2, §3, §4, §5, §6, §7

[3] = test system: SASKR = Salsola tragus L. (Russian thistle); assay: Post-emergent foliar herbicidal activity, greenhouse: SASKR
Protocol: as §1, §2, §3, §4, §5, §6, §7

[4] = test system: VIOTR = Viola tricolor L. (wild violet); assay: Post-emergent foliar herbicidal activity, greenhouse: VIOTR
Protocol: as §1, §2, §3, §4, §5, §6, §7

[5] = test system: GALAP = Galium aparine L. (catchweed bedstraw); assay: Post-emergent foliar herbicidal activity, greenhouse: GALAP
Protocol: as §1, §2, §3, §4, §5, §6, §7

[6] = test system: SINAR = Sinapis arvensis L. (wild mustard); assay: Post-emergent foliar herbicidal activity, greenhouse: SINAR
Protocol: as §1, §2, §3, §4, §5, §6, §7

[7] = test system: STEME = Stellaria media (common chickweed); assay: Post-emergent foliar herbicidal activity, greenhouse: STEME
Protocol: as §1, §2, §3, §4, §5, §6, §7

[8] = test system: LAMPU = Lamium purpureum L. (purple deadnettle); assay: Post-emergent foliar herbicidal activity, greenhouse: LAMPU
Protocol: as §1, §2, §3, §4, §5, §6, §7

[9] = test system: PAPRH = Papaver rhoeas L. (common poppy); assay: Post-emergent foliar herbicidal activity, greenhouse: PAPRH
Protocol: as §1, §2, §3, §4, §5, §6, §7

[10] = test system: HORVS = Hordeum vulgare L. (spring barley); assay: Post-emergent foliar herbicidal activity, greenhouse: HORVS (crop)
Protocol: as §1, §2, §3, §4, §5, §6, §7

[11] = test system: KCHSC = Kochia scoparia (L.) Schrad. (kochia); assay: Post-emergent foliar herbicidal activity, greenhouse: KCHSC
Protocol: as §1, §2, §3, §4, §5, §6, §7

[12] = test system: TRZAS = Triticum aestivum (spring) (spring wheat); assay: Post-emergent foliar herbicidal activity, greenhouse: TRZAS (crop)
Protocol: as §1, §2, §3, §4, §5, §6, §7

[13] = test system: CHEAL = Chenpodium album L. (common lambsquarters); assay: Post-emergent foliar herbicidal activity, greenhouse: CHEAL
Protocol: as §1, §2, §3, §4, §5, §6, §7

[14] = test system: VERPE = Veronica persica Poir. (Persian speedwell); assay: Post-emergent foliar herbicidal activity, greenhouse: VERPE
Protocol: as §1, §2, §3, §4, §5, §6, §7

[15] = test system: MATCH = Matricaria recutita L. (wild chamomile); assay: Post-emergent foliar herbicidal activity, greenhouse: MATCH
Protocol: as §1, §2, §3, §4, §5, §6, §7

[16] = Compound I 0 + Chlormequat Chloride 279 g ai/ha
[17] = Compound I 0 + Chlormequat Chloride 558 g ai/ha
[18] = Compound I 0 + Chlormequat Chloride 1119 g ai/ha
[19] = Compound I 2.5 + Chlormequat Chloride 0 g ai/ha
[20] = Compound I 5 + Chlormequat Chloride 0 g ai/ha
[21] = Compound I 10 + Chlormequat Chloride 0 g ai/ha

## C[N+](C)(C)CCCl.[Cl-] [Chlormequat Chloride, (2-chloroethyl)trimethylammonium chloride]
[1]; [16]
  BRSNW Obs: 0%
[1]; [17]
  BRSNW Obs: 3%
[1]; [18]
  BRSNW Obs: 5%
[2]; [16]
  CIRAR Obs: 5%
[2]; [17]
  CIRAR Obs: 5%
[2]; [18]
  CIRAR Obs: 10%
[3]; [16]
  SASKR Obs: 0%
[3]; [17]
  SASKR Obs: 0%
[3]; [18]
  SASKR Obs: 7%
[4]; [16]
  VIOTR Obs: 0%
[4]; [17]
  VIOTR Obs: 0%
[4]; [18]
  VIOTR Obs: 3%
[5]; [16]
  GALAP Obs: 3%
[5]; [17]
  GALAP Obs: 5%
[5]; [18]
  GALAP Obs: 20%
[6]; [16]
  SINAR Obs: 8%
[6]; [17]
  SINAR Obs: 15%
[7]; [16]
  STEME Obs: 8%
[7]; [17]
  STEME Obs: 8%
[7]; [18]
  STEME Obs: 7%
[8]; [16]
  LAMPU Obs: 15%
[8]; [17]
  LAMPU Obs: 15%
[8]; [18]
  LAMPU Obs: 30%
[9]; [16]
  PAPRH Obs: 5%
[9]; [17]
  PAPRH Obs: 5%
[9]; [18]
  PAPRH Obs: 7%
[10]; [16]
  HORVS Obs: 0%
[10]; [17]
  HORVS Obs: 0%
[11]; [16]
  KCHSC Obs: 5%
[11]; [17]
  KCHSC Obs: 5%
[11]; [18]
  KCHSC Obs: 7%
[12]; [16]
  TRZAS Obs: 0%
[12]; [17]
  TRZAS Obs: 8%
[13]; [16]
  CHEAL Obs: 0%
[13]; [17]
  CHEAL Obs: 3%
[14]; [16]
  VERPE Obs: 10%
[14]; [17]
  VERPE Obs: 10%
[14]; [18]
  VERPE Obs: 13%
[15]; [16]
  MATCH Obs: 0%
[15]; [17]
  MATCH Obs: 0%
[15]; [18]
  MATCH Obs: 27%

## COc1c(Cl)ccc(-c2nc(C(=O)OCc3ccccc3)c(Cl)c(N)c2F)c1F [Compound I, benzyl 4-amino-3-chloro-6-(4-chloro-2-fluoro-3-methoxyphenyl)-5-fluoropyridine-2-carboxylate]
[1]; [19]
  BRSNW Obs: 18%
[1]; [20]
  BRSNW Obs: 13%
[1]; [21]
  BRSNW Obs: 13%
[2]; [19]
  CIRAR Obs: 48%
[2]; [20]
  CIRAR Obs: 39%
[2]; [21]
  CIRAR Obs: 60%
[3]; [19]
  SASKR Obs: 15%
[3]; [20]
  SASKR Obs: 50%
[3]; [21]
  SASKR Obs: 67%
[4]; [19]
  VIOTR Obs: 30%
[4]; [20]
  VIOTR Obs: 20%
[4]; [21]
  VIOTR Obs: 20%
[5]; [19]
  GALAP Obs: 55%
[5]; [20]
  GALAP Obs: 66%
[5]; [21]
  GALAP Obs: 77%
[6]; [19]
  SINAR Obs: 70%
[6]; [20]
  SINAR Obs: 73%
[7]; [19]
  STEME Obs: 25%
[7]; [20]
  STEME Obs: 25%
[7]; [21]
  STEME Obs: 27%
[8]; [19]
  LAMPU Obs: 80%
[8]; [20]
  LAMPU Obs: 86%
[8]; [21]
  LAMPU Obs: 94%
[9]; [19]
  PAPRH Obs: 48%
[9]; [20]
  PAPRH Obs: 28%
[9]; [21]
  PAPRH Obs: 35%
[10]; [19]
  HORVS Obs: 0%
[10]; [20]
  HORVS Obs: 0%
[11]; [19]
  KCHSC Obs: 20%
[11]; [20]
  KCHSC Obs: 41%
[11]; [21]
  KCHSC Obs: 62%
[12]; [19]
  TRZAS Obs: 0%
[12]; [20]
  TRZAS Obs: 0%
[13]; [19]
  CHEAL Obs: 50%
[13]; [20]
  CHEAL Obs: 58%
[14]; [19]
  VERPE Obs: 20%
[14]; [20]
  VERPE Obs: 17%
[14]; [21]
  VERPE Obs: 23%
[15]; [19]
  MATCH Obs: 20%
[15]; [20]
  MATCH Obs: 25%
[15]; [21]
  MATCH Obs: 20%
